Experimental data reported in patent publication US12319655B2, “RAF kinase inhibitors and methods of use thereof” (Deciphera Pharmaceuticals, LLC, priority 2021, dated 2025).

Tests used:
A375 cells = assay: A375 Cell Proliferation Assay (1); type: cell-based; settings: Homo sapiens, A-375
Summary of the method: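 Resazurin fluorescence (excitation 540 nm, emission 600 nm, after a further 5-6 h) gave IC50s from triplicate compound dilution series.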

[1] = molecular target: C-Raf kinase (SEQ. ID NO: 3) (Homo sapiens (Human), UniProt P04049, Y340D/Y341D); assay: Biochemical Assay for C-Raf (1); settings: Table J, assay version (1); read-out: CRAF (1) IC50
C-Raf kinase (SEQ. ID NO: 3), sequence (P04049 307-648 Y340D/Y341D): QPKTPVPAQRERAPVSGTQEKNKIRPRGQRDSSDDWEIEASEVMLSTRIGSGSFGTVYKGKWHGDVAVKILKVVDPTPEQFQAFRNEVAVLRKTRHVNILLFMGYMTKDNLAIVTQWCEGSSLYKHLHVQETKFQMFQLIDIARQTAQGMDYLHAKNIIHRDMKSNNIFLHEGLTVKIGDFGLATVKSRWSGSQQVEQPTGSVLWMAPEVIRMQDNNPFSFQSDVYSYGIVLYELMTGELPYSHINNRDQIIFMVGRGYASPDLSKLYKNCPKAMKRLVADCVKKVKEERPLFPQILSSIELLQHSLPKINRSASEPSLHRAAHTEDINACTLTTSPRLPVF
Summary of the method: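 Coupled pyruvate kinase/LDH assay tracking NADH oxidation at 340 nm, with 0.43 nM C-Raf, 30.1 nM MEK and 1 mM ATP in pH 7.5 Tris buffer (15 mM MgCl2, 1% DMSO final). Read continuously for 6 h at 30 °C, rate taken from the 4–5 h window. IC50 from four-parameter fit of percent inhibition.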

Miapaca-2 cells = assay: MiaPaca-2 Cell Proliferation Assay (1); type: cell-based; settings: Homo sapiens, MIA PaCa-2, single agent, read-out: MiaPaca2 (1) IC50
Summary of the method: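 Resazurin was added after compound exposure and incubated 5-6 h, then fluorescence read at 540 nm excitation and 600 nm emission to give IC50.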

[2] = molecular target: A-Raf kinase (SEQ. ID No: 1) (Homo sapiens (Human), UniProt P10398, Y301D/Y302D); assay: Biochemical Assay for A-Raf (1); settings: Table J, assay version (1); read-out: ARAF (1) IC50
A-Raf kinase (SEQ. ID No: 1), sequence (P10398 other isoform, or with tags, fused parts or gaps Y301D (already in the parent)/Y302D (already in the parent)): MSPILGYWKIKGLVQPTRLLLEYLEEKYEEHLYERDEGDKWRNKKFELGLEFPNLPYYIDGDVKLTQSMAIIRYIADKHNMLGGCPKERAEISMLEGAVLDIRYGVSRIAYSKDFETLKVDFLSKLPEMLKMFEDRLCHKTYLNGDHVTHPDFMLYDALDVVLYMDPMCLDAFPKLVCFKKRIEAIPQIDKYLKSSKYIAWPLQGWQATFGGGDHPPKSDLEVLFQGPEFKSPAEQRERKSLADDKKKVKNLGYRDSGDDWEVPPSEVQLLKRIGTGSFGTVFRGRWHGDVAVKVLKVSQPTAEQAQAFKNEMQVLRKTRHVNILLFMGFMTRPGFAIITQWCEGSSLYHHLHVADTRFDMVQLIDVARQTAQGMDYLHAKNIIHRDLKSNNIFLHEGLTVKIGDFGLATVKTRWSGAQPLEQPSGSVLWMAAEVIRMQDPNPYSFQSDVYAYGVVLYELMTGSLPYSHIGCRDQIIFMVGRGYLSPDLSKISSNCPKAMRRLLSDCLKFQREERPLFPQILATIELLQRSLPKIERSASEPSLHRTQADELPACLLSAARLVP
Summary of the method: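 A-Raf Y301D/Y302D at 5.55 nM phosphorylates 30.1 nM MEK with 1 mM ATP in pH 7.5 Tris buffer, 1% DMSO. Activity was read continuously as NADH oxidation at 340 nm in a pyruvate kinase/lactate dehydrogenase coupled system for 6 h at 30 °C. Rates from 4–5 h were converted to percent inhibition, and IC50 came from a four-parameter fit.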

How did the IC50 (A375 cells) turn out when `Cc1ccc(NC(=O)c2ccnc(C(C)(C)C#N)c2)cc1-c1cc(-c2ccnc(NC(=O)C3CC3)c2)cnn1` [Example 245] was run?
Its IC50 is no more than 0.1 µM.

And the IC50 [1]?
Its IC50 is no more than 0.1 µM.

And the IC50 (Miapaca-2 cells)?
The IC50 was 1 to 10 µM.

What about the IC50 [2] of the same compound?
The IC50 was 0.5 to 1 µM.

`Cc1ncc(NC(=O)c2ccnc(C(C)(C)F)c2)cc1-c1cccc(-c2cc(NC(=O)C3CC3)ncn2)c1` [Example 249] was tested. Which IC50 (A375 cells) did it give?
Its IC50 is no more than 0.1 µM.

And the IC50 [1]?
Its IC50 is no more than 0.1 µM.

What about the IC50 (Miapaca-2 cells) of the same compound?
Its IC50 is 1 to 10 µM.

And the IC50 [2]?
Its IC50 is 0.5 to 1 µM.

What does the source list for `Cc1ccc(NC(=O)c2cnnc(C3CC3)c2)cc1-c1ccnc(-c2ccnc(NC(=O)C3CC3)c2)n1` [Example 250]?
IC50 (A375 cells): 0.1 to 0.5 µM; IC50 [1]: ≤ 0.1 µM; IC50 (Miapaca-2 cells): 1 to 10 µM; IC50 [2]: 1 to 10 µM

How did the IC50 (A375 cells) turn out when `Cc1ncc(NC(=O)c2ccnc(C(C)(C)C#N)c2)cc1-c1ccnc(-c2ccnc(NC(=O)C3CC3)c2)c1` [Example 251] was run?
Its IC50 is no more than 0.1 µM.

And the IC50 [1]?
The IC50 was no more than 0.1 µM.

What about the IC50 (Miapaca-2 cells) of the same compound?
The IC50 was 1 to 10 µM.

And the IC50 [2]?
Its IC50 is 1 to 10 µM.

For `Cc1cc(F)c(NC(=O)c2cnnc(C3CC3)c2)cc1-c1nccc(-c2ccnc(NC(=O)C3CC3)c2)n1` [Example 252], which IC50 (A375 cells) is on record?
The IC50 was 1 to 10 µM.

What about the IC50 [1] of the same compound?
The IC50 was no more than 0.1 µM.

And the IC50 (Miapaca-2 cells)?
The IC50 was 1 to 10 µM.

What about the IC50 [2] of the same compound?
Its IC50 is 1 to 10 µM.

What does the source list for `Cc1ncc(NC(=O)c2ccnc(C3CC3)c2)cc1-c1ccnc(-c2ccnc(NC(=O)C3CC3)c2)c1` [Example 253]?
IC50 (A375 cells): 0.1 to 0.5 µM; IC50 [1]: ≤ 0.1 µM; IC50 (Miapaca-2 cells): 1 to 10 µM; IC50 [2]: 1 to 10 µM

Which results are given for `Cc1ncc(NC(=O)c2cnnc(C3CC3)c2)cc1-c1ccnc(-c2ccnc(NC(=O)C3CC3)c2)c1` [Example 254]?
IC50 (A375 cells): 1 to 10 µM; IC50 [1]: ≤ 0.1 µM; IC50 (Miapaca-2 cells): 1 to 10 µM; IC50 [2]: 1 to 10 µM

How did the IC50 (A375 cells) turn out when `Cc1ncc(NC(=O)c2ccnc(C3CC3)c2)cc1-c1cnc(C)c(-c2ccnc(NC(=O)C3CC3)c2)c1` [Example 256] was run?
Its IC50 is 0.5 to 1 µM.

What about the IC50 [1] of the same compound?
Its IC50 is no more than 0.1 µM.

And the IC50 (Miapaca-2 cells)?
The IC50 was 1 to 10 µM.

What about the IC50 [2] of the same compound?
The IC50 was 1 to 10 µM.

Which IC50 (A375 cells) does the source give for `Cc1ccc(NC(=O)c2ccnc(C(C)(C)C#N)c2)cc1-c1ccnc(-c2ccnc(NC(=O)C3CC3)c2)n1` [Example 257] here?
Its IC50 is no more than 0.1 µM.

And the IC50 [1]?
The IC50 was no more than 0.1 µM.

And the IC50 (Miapaca-2 cells)?
Its IC50 is 1 to 10 µM.

And the IC50 [2]?
Its IC50 is 0.5 to 1 µM.

How did the IC50 (A375 cells) turn out when `Cc1cc(F)c(NC(=O)c2ccnc(C3(C#N)CC3)c2)cc1-c1ccnc(-c2ccnc(NC(=O)C3CC3)c2)n1` [Example 262] was run?
Its IC50 is no more than 0.1 µM.

And the IC50 [1]?
Its IC50 is no more than 0.1 µM.

And the IC50 (Miapaca-2 cells)?
The IC50 was 1 to 10 µM.

And the IC50 [2]?
The IC50 was 0.5 to 1 µM.

For `Cc1cc(F)c(NC(=O)c2cnnc(C3CC3)c2)cc1-c1ccnc(-c2ccnc(NC(=O)C3CC3)c2)n1` [Example 263], which IC50 (A375 cells) is on record?
The IC50 was 1 to 10 µM.

What about the IC50 [1] of the same compound?
Its IC50 is no more than 0.1 µM.

And the IC50 (Miapaca-2 cells)?
The IC50 was 1 to 10 µM.

What about the IC50 [2] of the same compound?
Its IC50 is 1 to 10 µM.

`CNC(=O)c1cc(-c2cc(-c3cc(NC(=O)c4ccnc(C(C)(C)OC)c4)ccc3C)ccn2)ccn1` [Example 264] was tested. Which IC50 (A375 cells) did it give?
The IC50 was no more than 0.1 µM.

What about the IC50 [1] of the same compound?
Its IC50 is no more than 0.1 µM.

And the IC50 (Miapaca-2 cells)?
The IC50 was 1 to 10 µM.

What about the IC50 [2] of the same compound?
Its IC50 is 1 to 10 µM.

For `CNC(=O)c1cc(-c2cc(-c3cc(NC(=O)c4ccnc(C5(C#N)CC5)c4)ccc3C)ccn2)ccn1` [Example 265], which IC50 (A375 cells) is on record?
Its IC50 is no more than 0.1 µM.

And the IC50 [1]?
Its IC50 is no more than 0.1 µM.

And the IC50 (Miapaca-2 cells)?
Its IC50 is 1 to 10 µM.

And the IC50 [2]?
Its IC50 is 1 to 10 µM.

For `Cc1ccc(NC(=O)c2ccnc(C(C)(C)C#N)c2)cc1-c1cccc(-c2cc(N)ncn2)c1` [Example 267], which IC50 (A375 cells) is on record?
Its IC50 is 0.1 to 0.5 µM.

What about the IC50 [1] of the same compound?
The IC50 was no more than 0.1 µM.

And the IC50 (Miapaca-2 cells)?
The IC50 was 1 to 10 µM.

And the IC50 [2]?
The IC50 was 1 to 10 µM.

What does the source list for `Cc1ncc(NC(=O)c2ccnc(C3CC3)c2)cc1-c1cccc(-c2ccnc(NC(=O)C3CC3)c2)n1` [Example 270]?
IC50 (A375 cells): 0.1 to 0.5 µM; IC50 [1]: ≤ 0.1 µM; IC50 (Miapaca-2 cells): 1 to 10 µM; IC50 [2]: 1 to 10 µM

For `Cc1cc(F)c(NC(=O)c2ccnc(C(F)(F)F)c2)cc1-c1cncc(-c2ccnc(NC(=O)C3CC3)c2)n1` [Example 271], which IC50 (A375 cells) is on record?
Its IC50 is 0.5 to 1 µM.

What about the IC50 [1] of the same compound?
The IC50 was no more than 0.1 µM.

What about the IC50 (Miapaca-2 cells) of the same compound?
Its IC50 is 1 to 10 µM.

What about the IC50 [2] of the same compound?
The IC50 was 0.5 to 1 µM.

With `Cc1cc(C(=O)Nc2cnc(C)c(-c3ccnc(-c4ccnc(NC(=O)C5CC5)c4)n3)c2)ccn1` [Example 273] as the compound, how does the IC50 (A375 cells) read?
The IC50 was 1 to 10 µM.

And the IC50 [1]?
Its IC50 is no more than 0.1 µM.

And the IC50 (Miapaca-2 cells)?
Its IC50 is 1 to 10 µM.

And the IC50 [2]?
The IC50 was 1 to 10 µM.

With `COC(C)(C)c1cc(C(=O)Nc2cnc(C)c(-c3cccc(-c4cc(NC(=O)C5CC5)ncn4)c3)c2)ccn1` [Example 274] as the compound, how does the IC50 (A375 cells) read?
The IC50 was no more than 0.1 µM.

What about the IC50 [1] of the same compound?
The IC50 was no more than 0.1 µM.

And the IC50 (Miapaca-2 cells)?
The IC50 was 1 to 10 µM.

And the IC50 [2]?
The IC50 was 1 to 10 µM.

What does the source list for `Cc1ncc(NC(=O)c2cnnc(C3CC3)c2)cc1-c1ccnc(-c2ccnc(NC(=O)C3CC3)c2)n1` [Example 278]?
IC50 (A375 cells): 1 to 10 µM; IC50 [1]: ≤ 0.1 µM; IC50 (Miapaca-2 cells): 1 to 10 µM; IC50 [2]: 1 to 10 µM

For `Cc1ncc(NC(=O)c2cnn(C(C)(C)C)c2)cc1-c1cccc(-c2cc(NC(=O)C3CC3)ncn2)c1` [Example 279], which IC50 (A375 cells) is on record?
The IC50 was 0.1 to 0.5 µM.

And the IC50 [1]?
Its IC50 is no more than 0.1 µM.

And the IC50 (Miapaca-2 cells)?
The IC50 was 1 to 10 µM.

What about the IC50 [2] of the same compound?
The IC50 was 1 to 10 µM.
